Experimental findings from patent US8252832B2, “Kinesin inhibitors as cancer therapeutics” (Novartis AG, priority 2007, dated 2012) are described below.

Holding throughout (assay): Caspase-Glo 3/7 assay
Common to all, as to assay type: cell-based

For one assay, the system named is Colo-205. Conditions: Homo sapiens. An excerpt:
(§1) Identification of tumor types that are the most sensitive to the KSP inhibitors of the present invention can be accomplished using an unbiased approach that uses several cell-based assays. The assays chosen were as follows: • CellTiter-Glo®. This is an assay designed to measure ATP concentration in a cell culture, and can be correlated to cell number. Briefly CellTiter-Glo® (Promega Corporation) is a homogeneous method using the single CellTiter-Glo® reagent to detect ATP wherein ATP in the assay drives the activity of a thermostable luciferase to create a luminescent signal which can then be measured and correlated with the number of viable cells. Briefly, for adherent cells, 1,000 to 5,000 cells/well were plated in 96-well plates (100 μl/well) and let to adhere for 24 hours before being treated with drug. For non-adherent cells, 1,000 to 10,000 cells/well were plated in 96-well plates (100 μl/well) and immediately treated with drug. Drug dilutions were prepared in DMSO at 1000 times the final concentration. These dilutions were then diluted 1/100 in growth media before being added to the cells (11 μl/well) to achieve the desired final concentration. After 48 h in a 37° C. tissue culture incubator, the plates were processed for the CellTiter-Glo®assay according to the manufacturer's instructions. Protocol for a 72 hour cell proliferation assay: The 72 hour assay was performed the same way as the 48 hour assay except for the following modifications: For adherent cells, 500 to 5,000 cells/well were plated in 96-well plates (90 μl/well cell growth media) and left to adhere for 24 hours before being treated with drug. For non-adherent cells, 1,000 to 10,000 cells/well were plated in 96-well plates (90 μl/well cell growth media) and immediately treated with drug. Data values presented represent the concentration of test compound required for a 50% reduction in growth. • LDH release. The Cytotoxicity Detection KitPLUS (LDH) assay (Roche Diagnostics, Manheim, Germany) measures the amount of LDH released in the media by dying cells; LDH catalyzes the conversion of lactate into pyruvate. The enzymatic reaction is coupled to a chemical reaction that uses a tetrazolium salt to form a formazan that is red and can be detected by its absorbance at 490 nm. This assay measures the amount of cell death after drug treatment. Cells were plated at 10,000 cells/well in 96-well plates (100 μl/well). Adherent cells were let to adhere for 24 hours before being treated with drug, whereas non-adherent cells were immediately treated with drug. Drug dilutions were prepared in DMSO at 1000 times the final concentration. These dilutions were then diluted 1/100 in growth media before being added to the cells (11 μl/well) to achieve the desired final concentration. After 48 h in a 37° C. tissue culture incubator, the plates were processed for the Cytotoxicity Detection KitPLUS (LDH) assay according to the manufacturer's instructions. The media only values were subtracted from all the data points before analysis. Data values presented correspond to the compound concentration wherein LDH output is at half maximal level. • Caspase-Glo® 3/7. The Caspase-Glo® 3/7 Assay (Promega Corporation) is a homogeneous luminescent assay that measures caspase-3/7 activities. The assay provides a proluminescent caspase-3/7 DEVD-aminoluciferin substrate and a thermostable luciferase in a reagent optimized for caspase-3/7 activity, luciferase activity and cell lysis. Adding the single Caspase-Glo® 3/7 Reagent results in cell lysis, followed by caspase cleavage of the substrate. This liberates free aminoluciferin, which is consumed by the luciferase, generating a luminescent signal. The signal is proportional to caspase-3/7 activity. Data values presented correspond to the compound concentration wherein caspase 3/7 activity is at half maximal level.

For a further assay, the system named is HCT-116. Particulars: Homo sapiens.
Description: as §1

The test system of another assay is MV4; 11. Particulars: Homo sapiens.
Description: as §1

A further assay has as its system T47-D. Particulars: Homo sapiens, T47D.
Description: as §1

Each structure is given as a SMILES string.

Consider `CC(C)(C)[C@H](c1nc(-c2cc(F)ccc2F)cn1Cc1ccccc1)N(CC[C@H](N)CF)C(=O)CO` [Compound IIa], for which the EC50 with Colo-205 (Colo-205, 24 h) was determined as 0.13 nM; in the assay with Colo-205 (Colo-205, 48 h) it was 0.21 nM; in the assay on Colo-205 (Colo-205, 72 h) it was 0.19 nM; in the assay with HCT-116 (HCT-116, 24 h), 0.12 nM; with HCT-116 (HCT-116, 48 h), 0.09 nM; with MV4; 11 (MV4;11, 24 h) it was 0.02 nM. The half-maximal effective concentration (EC50) turned out to be 0.03 nM with MV4; 11 (MV4;11, 48 h); 0.39 nM with T47-D (48 h); 0.4 nM in the assay on T47-D (72 h).

For orientation: EC50 means the concentration at which the effect is half-maximal.
